# Test system: HSV-2
# Assay: Transient expression assay: inhibition of HSV replication (HSV-2-induced β-galactosidase expression from HSV-1 TK promoter/Lac Z plasmid pON 245 in HeLa cells)
# Type: cell-based, Herpes simplex virus HSV-2 (ATCC VR-540)
# Conditions: Human alphaherpesvirus 2, HeLa, 24 h, read-out: IC50-values for Inhibition of HSV replication
# Description: The following example illustrates the activities of various compounds for inhibiting beta-galactosidase.
# Transient Expression Assay
# Herpes simplex virus (HSV) is grown and titered on Vero cells, a standard cell line.
# Plasmid pON 245 (constructed by Ed Mocarski at Stanford University, Stanford California) is used for the assay. This plasmid contains the HSV-1 thymidine kinase (TK) promoter located immediately 5' of the E. coli Lac Z gene and controls transcription from the bacterial gene in transient assays. Plasmids (22 μg/10^6 cells) are introduced into standard HeLa cells by DEAE-dextran-mediated transfection. DEAE-dextran is an electropositivity charged polymer which is a diethylamino ethyl ether of dextran. Forty-eight hours after transfection, cells are infected with HSV-2 (American Type Collection Culture (ATCC) VR-540) (multiplicity of infection=5 plaque-forming units per cell). Twenty-four hours after viral infection, levels of β-galactosidase in cells are assayed by incubation in the presence of 4-methylumbelliferyl-β-D-galactoside for 2 hours on a microfluorimeter after addition of 0.1 M glycine buffer, pH=10.3. An inhibitory concentration (IC50 value), for example, of 8 μg/ml indicates the amount of compound which reduces maximal β-galactosidase expression by 50 percent. The inhibition of expression of β-galactosidase activity indicates the inhibition of viral replication at events prior to or including […] kinase (TK) expression by HSV-2.
row,Structure (SMILES),IC50 [µg/mL]
1,O=c1c2c(oc3ncccc13)-c1ccccc1CCC2,> 25
2,O=c1c2c(oc3ncccc13)CCc1ccccc1-2,16
3,O=c1c(-c2ccccc2)coc2ncc(Br)cc12,10
4,O=c1c2c(oc3ccccc13)-c1ccccc1CCC2,8

# Reference: patent publication US5034531A, “Fused polycyclic pyranyl compounds as antiviral agents” (priority 1988, dated 1991)
